The subject of one data set is A549. Nature of the data set: Cytotoxicity against human A549 cells assessed as reduction in cell viability after 72 hrs by MTT assay. Particulars: A549, 72 h. The data set is classed as functional, cell-based. On the technique in general: Tetrazolium dyes change colour on reduction, which living cells bring about.
Data set [1] can be described thus: Selectivity index, ratio of IC50 for human BEAS2B cells to IC50 for human A549 cells. Format: toxicity.
In the next data set the test system is BEAS-2B. The experiment in a line: Cytotoxicity against human BEAS2B cells assessed as reduction in cell viability after 72 hrs by MTT assay. The data set is classed as cell-based.

The term IC50 denotes the concentration that inhibits the measured activity by half.

Turning to `CC(C)(C)COC1OC(=O)C(Cl)=C1Nc1ccc(Cl)cc1` (stereo unspecified), the IC50 came out at 13.3 µM with A549 and 30.3 µM in the data set on BEAS-2B. Moreover, the “log(RatioIC50)” value in data set [1] turned out to be 0.36.
As to `CCOC1OC(=O)C(Cl)=C1Cl` (stereo unspecified), the 50% inhibitory concentration (IC50) with A549 came out at 6.3 µM; in the data set on BEAS-2B, 3.8 µM. In addition, the “log(RatioIC50)” value in data set [1] stood at 0.22.
For `CC(C)(C)OC1OC(=O)C(Cl)=C1Cl` (stereo unspecified), in that order: 14 µM, 23.1 µM and 0.22.
Consider `CC(C)OC1OC(=O)C(Cl)=C1Nc1ccc(F)cc1` (stereo unspecified), for which the IC50 in the data set on A549 was 186 µM; in the data set on BEAS-2B it was greater than 400 µM.
In the case of `CCCCOC1OC(=O)C(Cl)=C1Nc1ccc(Br)cc1` (stereo unspecified), the IC50 in the data set on A549 was 46.5 µM; in the data set on BEAS-2B, 42.7 µM. For the same compound, in data set [1], the “log(RatioIC50)” value was -0.04.
For `CC(C)(C)COC1OC(=O)C(Cl)=C1Nc1ccccc1` (stereo unspecified), in that order: 76.2 µM, 76.2 µM and 0.
For `CCCCOC1OC(=O)C(Cl)=C1Nc1ccc(Cl)cc1` (stereo unspecified), the values for the 50% inhibitory concentration (IC50) with A549 and in the data set on BEAS-2B were 58.1 µM and 60.8 µM, respectively. For the same compound, the “log(RatioIC50)” value in data set [1] was 0.02.
In the case of `CC(C)OC1OC(=O)C(Cl)=C1N1CCCCC1` (stereo unspecified), the IC50 in the data set on A549 and in the data set with BEAS-2B was greater than 400 µM each time.
Turning to `CCCCOC1OC(=O)C(Cl)=C1N1CCCCC1` (stereo unspecified), the results for the IC50 in the data set on A549 and in the data set on BEAS-2B were 93.3 µM and 172 µM, respectively. Moreover, the “log(RatioIC50)” value in data set [1] is given as 0.27.
Take `CC(C)OC1OC(=O)C(Cl)=C1Nc1ccc(Cl)cc1` (stereo unspecified): the IC50 in the data set on A549 was determined as 39.6 µM; in the data set with BEAS-2B, 77 µM. In data set [1], the “log(RatioIC50)” value is recorded as 0.29.
As for `CC(C)(C)COC1OC(=O)C(Cl)=C1N1CCCCC1` (stereo unspecified), the IC50 in the data set with A549 and in the data set with BEAS-2B was greater than 400 µM throughout.
For the compound `CC(C)OC1OC(=O)C(Cl)=C1Nc1ccc(Br)cc1` (stereo unspecified), the IC50 in the data set on A549 was determined as 95.9 µM; in the data set with BEAS-2B, 202 µM. Besides, the “log(RatioIC50)” value in data set [1] is on record as 0.32.
`CC(C)OC1OC(=O)C(Cl)=C1Nc1ccccc1` (stereo unspecified): the IC50 in the data set with A549 and with BEAS-2B was greater than 400 µM in each case.
In the case of `CCCCOC1OC(=O)C(Cl)=C1Nc1ccccc1` (stereo unspecified), the IC50 in the data set with A549 was 175 µM; in the data set with BEAS-2B, 206 µM. Further, the “log(RatioIC50)” value in data set [1] amounted to 0.07.
For `CCCCOC1OC(=O)C(Cl)=C1Nc1ccc(F)cc1` (stereo unspecified), in that order: 78.5 µM, 122 µM and 0.19.
In the case of `CC(C)(C)COC1OC(=O)C(Cl)=C1Nc1ccc(F)cc1` (stereo unspecified), the figures for the IC50 in the data set with A549 and with BEAS-2B were 26.7 µM and 47.6 µM, respectively. Further, in data set [1], the “log(RatioIC50)” value was 0.25.
The matching figures for `CCCOC1OC(=O)C(Cl)=C1Cl` (stereo unspecified): 3.6 µM, 3.5 µM and -0.02.
The matching figures for `CCCCOC1OC(=O)C(Cl)=C1Cl` (stereo unspecified): 22.5 µM, 22.3 µM and 0.
For `COC1OC(=O)C(Cl)=C1Cl` (stereo unspecified), in that order: 5.1 µM, 4.6 µM and 0.05.
With `CC(C)(C)COC1OC(=O)C(Cl)=C1Nc1ccc(Br)cc1` (stereo unspecified), the concentration for half-maximal inhibition (IC50) in the data set with A549 is 28 µM; in the data set on BEAS-2B, 30.9 µM. Besides, in data set [1], the “log(RatioIC50)” value is recorded as 0.23.

The values are drawn from ChEMBL document CHEMBL4229359, “Simple 2(5H)-furanone derivatives with selective cytotoxicity towards non-small cell lung cancer cell line A549 - Synthesis, structure-activity relationship and biological evaluation” (Eur J Med Chem, 2018).
